Source: PubChem BioAssay AID330 (DTP/NCI, 2004)
Several values for one entry are separate records, joined by “and”; a condition that tells them apart may be missing. Equal values may be shown once. Inconclusive results and toxic doses are left out. Rule for the calls: active = survival T/C of 150% or more; inactive = T/C below 125% in these data.

Test system: P388 leukemia ip, CD2F1 mice, survival T/C
Test: NCI In Vivo Anticancer Drug Screen. Data for tumor model P388 Leukemia (intraperitoneal) in CD2F1 (CDF1) mice
Conditions: endpoint: median survival time, higher = longer survival
In short: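 Mice carrying the transplanted tumor received test compound or vehicle. Survival was recorded in each group, and the value is the treated-group measurement divided by that of the vehicle-treated control group.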

[1] = dose: 50.0 mg/kg/injection, schedule: Q01DX005 (ip), vehicle: Klucel (hydroxypropylcellulose) (HPC)
[2] = dose: 100.0 mg/kg/injection, schedule: Q01DX005 (ip), vehicle: Klucel (hydroxypropylcellulose) (HPC)
[3] = dose: 100.0 mg/kg/injection, schedule: Q04DX003 (ip), vehicle: saline with Tween-80
[4] = dose: 200.0 mg/kg/injection, schedule: Q01DX005 (ip), vehicle: Klucel (hydroxypropylcellulose) (HPC)
[5] = dose: 200.0 mg/kg/injection, schedule: Q04DX003 (ip), vehicle: saline with Tween-80
[6] = dose: 400.0 mg/kg/injection, schedule: Q04DX003 (ip), vehicle: saline with Tween-80
[7] = dose: 50.0 mg/kg/injection, schedule: Q01DX009 (ip), vehicle: saline with Tween-80
[8] = dose: 100.0 mg/kg/injection, schedule: Q01DX009 (ip), vehicle: saline with Tween-80
[9] = dose: 200.0 mg/kg/injection, schedule: Q01DX009 (ip), vehicle: saline with Tween-80
[10] = dose: 50.0 mg/kg/injection, schedule: Q01DX005 (ip), vehicle: saline with Tween-80
[11] = dose: 100.0 mg/kg/injection, schedule: Q01DX005 (ip), vehicle: saline with Tween-80
[12] = dose: 200.0 mg/kg/injection, schedule: Q01DX005 (ip), vehicle: saline with Tween-80
[13] = dose: 60.0 mg/kg/injection, schedule: Q01DX005 (ip), vehicle: saline with Tween-80

Measured: T/C

Cc1c(Cc2ccccc2)[n+](=O)c2ccccc2n1[O-]
inactive: [1] 92 % of control | [2] 95 % of control | dose: 100.0 mg/kg/injection, schedule: Q04DX003 (ip), vehicle: Klucel (hydroxypropylcellulose) (HPC) 100 % of control | [3] 101 % of control | [4] 99 % of control | dose: 200.0 mg/kg/injection, schedule: Q04DX003 (ip), vehicle: Klucel (hydroxypropylcellulose) (HPC) 98 % of control | [5] 110 % of control | dose: 400.0 mg/kg/injection, schedule: Q01DX005 (ip), vehicle: Klucel (hydroxypropylcellulose) (HPC) 94 % of control | dose: 400.0 mg/kg/injection, schedule: Q04DX003 (ip), vehicle: Klucel (hydroxypropylcellulose) (HPC) 104 % of control | [6] 118 % of control

COc1ccc2c(c1)nnn2C(=O)/C=C/c1ccccc1
inactive: dose: 12.5 mg/kg/injection, schedule: Q01DX009 (ip), vehicle: saline with Tween-80 94 % of control | dose: 25.0 mg/kg/injection, schedule: Q01DX009 (ip), vehicle: saline with Tween-80 107 % of control | [7] 101 % of control and 104 % of control

O=C(/C=C/c1ccc(Cl)c(Cl)c1)/C=C/c1ccc(Cl)c(Cl)c1
inactive: [7] 87 % of control | [8] 100 % of control | [9] 87 % of control

CCn1c(Cl)c(/C=N/NC(N)=S)c2ccccc21
inactive: dose: 100.0 mg/kg/injection, schedule: Q01DX001 (ip), vehicle: Klucel (hydroxypropylcellulose) (HPC) 97 % of control | dose: 200.0 mg/kg/injection, schedule: Q01DX001 (ip), vehicle: Klucel (hydroxypropylcellulose) (HPC) 91 % of control

BrCC[N+]12CC[N+](CCBr)(CC1)C2 (tested in a mixture with another compound)
inactive: dose: 5.0 mg/kg/injection, schedule: Q04DX003 (ip), vehicle: water 107 % of control | dose: 10.0 mg/kg/injection, schedule: Q04DX003 (ip), vehicle: water 114 % of control | dose: 20.0 mg/kg/injection, schedule: Q04DX003 (ip), vehicle: distilled water + Tween-80 122 % of control | dose: 20.0 mg/kg/injection, schedule: Q04DX003 (ip), vehicle: water 100 % of control | dose: 37.5 mg/kg/injection, schedule: Q04DX003 (ip), vehicle: water 112 % of control | dose: 40.0 mg/kg/injection, schedule: Q04DX003 (ip), vehicle: distilled water + Tween-80 107 % of control | dose: 40.0 mg/kg/injection, schedule: Q04DX003 (ip), vehicle: water 104 % of control | dose: 80.0 mg/kg/injection, schedule: Q04DX003 (ip), vehicle: distilled water + Tween-80 118 % of control | dose: 80.0 mg/kg/injection, schedule: Q04DX003 (ip), vehicle: water 110 % of control | dose: 160.0 mg/kg/injection, schedule: Q04DX003 (ip), vehicle: distilled water + Tween-80 116 % of control | dose: 160.0 mg/kg/injection, schedule: Q04DX003 (ip), vehicle: water 112 % of control

Cc1ccc(NC(=O)Oc2ccc(F)cc2Cl)c([N+](=O)[O-])c1
inactive: [7] 112 % of control | [8] 118 % of control

CCC(=O)c1c(C)oc2ccc(O)cc12
inactive: dose: 25.0 mg/kg/injection, schedule: Q04DX002 (ip), vehicle: Klucel (hydroxypropylcellulose) (HPC) 94 % of control | dose: 50.0 mg/kg/injection, schedule: Q04DX002 (ip), vehicle: Klucel (hydroxypropylcellulose) (HPC) 89 % of control | dose: 100.0 mg/kg/injection, schedule: Q04DX002 (ip), vehicle: Klucel (hydroxypropylcellulose) (HPC) 91 % of control | dose: 200.0 mg/kg/injection, schedule: Q04DX002 (ip), vehicle: Klucel (hydroxypropylcellulose) (HPC) 90 % of control | dose: 400.0 mg/kg/injection, schedule: Q04DX002 (ip), vehicle: Klucel (hydroxypropylcellulose) (HPC) 90 % of control

COc1cc(C(CC#N)CC#N)cc(OC)c1OC
inactive: [10] 96 % of control | [11] 99 % of control | [12] 97 % of control

Cc1ccc(SSc2ccc(C(C)(C)C)cc2)cc1
inactive: [1] 97 % of control | [2] 102 % of control | [4] 99 % of control

COC1(Cl)CC1C#N (stereo not given)
inactive: [7] 117 % of control | [8] 96 % of control | [9] 105 % of control

O=c1c(O)c(-c2ccc(O)c(O)c2)oc2cc(O)cc(O)c12
inactive: dose: 12.5 mg/kg/injection, schedule: Q03HX008 (ip), vehicle: saline with Tween-80 95 % of control | dose: 25.0 mg/kg/injection, schedule: Q03HX008 (ip), vehicle: saline with Tween-80 91 % of control | dose: 40.0 mg/kg/injection, schedule: Q01DX009 (ip), vehicle: saline with Tween-80 100 % of control | dose: 50.0 mg/kg/injection, schedule: Q03HX008 (ip), vehicle: saline with Tween-80 93 % of control | dose: 80.0 mg/kg/injection, schedule: Q01DX009 (ip), vehicle: saline with Tween-80 100 % of control | dose: 100.0 mg/kg/injection, schedule: Q01DX001 (ip), vehicle: saline with Tween-80 108 % of control | dose: 100.0 mg/kg/injection, schedule: Q03HX008 (ip), vehicle: saline with Tween-80 99 % of control | [3] 95 % of control | dose: 200.0 mg/kg/injection, schedule: Q01DX001 (ip), vehicle: saline with Tween-80 98 % of control | dose: 200.0 mg/kg/injection, schedule: Q03HX008 (ip), vehicle: saline with Tween-80 103 % of control | [5] 109 % of control | dose: 400.0 mg/kg/injection, schedule: Q01DX001 (ip), vehicle: saline with Tween-80 104 % of control | [6] 104 % of control | dose: 800.0 mg/kg/injection, schedule: Q01DX001 (ip), vehicle: saline with Tween-80 108 % of control

CC(=O)OCC(=O)[C@@]1(O)CC[C@H]2[C@@H]3CCC4=CC(=O)[C@H](C)C[C@]4(C)[C@H]3[C@@H](O)C[C@@]21C
inactive: dose: 100.0 mg/kg/injection, schedule: Q04DX003 (ip), vehicle: other 100 % of control | dose: 200.0 mg/kg/injection, schedule: Q04DX003 (ip), vehicle: other 100 % of control | dose: 400.0 mg/kg/injection, schedule: Q04DX003 (ip), vehicle: other 115 % of control

CC(O)c1nc2ccccc2nc1C(=O)Nc1ccccc1N (stereo not given)
inactive: [10] 101 % of control | [11] 88 % of control | [12] 92 % of control

O=C1C=C(Cl)C(O)C1(Cl)Cl (stereo not given)
inactive: dose: 6.25 mg/kg/injection, schedule: Q01DX009 (ip), vehicle: saline 94 % of control | dose: 12.5 mg/kg/injection, schedule: Q01DX009 (ip), vehicle: saline 92 % of control

CC(=O)O[C@@]1(C)OC(=O)[C@@]2(c3ccccc3)N(C(C)=O)C(C)=C(C#N)[C@@]12C#N
inactive: [10] 100 % of control | [11] 106 % of control | [12] 97 % of control

O=C(O)C1CC2c3ccccc3C1([N+](=O)[O-])c1ccccc12 (stereo not given)
inactive: [13] 101 % of control | dose: 120.0 mg/kg/injection, schedule: Q01DX005 (ip), vehicle: saline with Tween-80 104 % of control | dose: 240.0 mg/kg/injection, schedule: Q01DX005 (ip), vehicle: saline with Tween-80 109 % of control

COc1cc(OC)c2cc(-n3nnc4cc([N+](=O)[O-])ccc43)c(=O)oc2c1
inactive: dose: 7.5 mg/kg/injection, schedule: Q01DX005 (ip), vehicle: saline with Tween-80 100 % of control | dose: 15.0 mg/kg/injection, schedule: Q01DX005 (ip), vehicle: saline with Tween-80 95 % of control | dose: 30.0 mg/kg/injection, schedule: Q01DX005 (ip), vehicle: saline with Tween-80 88 % of control | [13] 88 % of control

CCC(C)(C)N=C(Nc1cccnc1)Nc1nccs1
inactive: [3] 92 % of control | [5] 94 % of control | [6] 87 % of control
